Activity calls are given as the source filed them. No cut-off for these calls is given here.
Key:
[1] = biological target: Protein cereblon/Kelch-like ECH-associated protein 1 (Mus musculus) (UniProt Q9Z2X8+Q8C7D2); assay: PROTAC activity at CRBN/Keap1 in mouse AML12 cells assessed as degradation of Keap1 protein at 1 uM incubated for 24 hrs by Western blotting analysis; type: cell-based
[2] = biological target: Kelch-like ECH-associated protein 1 (Homo sapiens, UniProt Q14145); assay: Binding affinity to Keap1 (unknown origin) assessed as dissociation constant incubated for 200 sec by sensor chip immobilization based surface plasmon resonance analysis
AML12 [3] = assay: Antioxidant activity against free fatty acid induced oxidative stress in mouse AML12 cells assessed as downregulation of Keap1 protein expression level incubated for 24 hrs by immunoblot analysis; type: functional, cell-based
AML12 [4] = assay: Antioxidant activity against free fatty acid induced oxidative stress in mouse AML12 cells assessed as upregulation of Nrf2 protein expression level incubated for 24 hrs by immunoblot analysis; type: functional, cell-based
AML12 [5] = assay: Antioxidant activity against free fatty acid induced oxidative stress in mouse AML12 cells assessed as upregulation of HO-1 protein expression level incubated for 24 hrs by immunoblot analysis; type: functional, cell-based
AML12 [6] = assay: Antioxidant activity against free fatty acid induced oxidative stress in mouse AML12 cells assessed as upregulation of NQO1 protein expression level incubated for 24 hrs by immunoblot analysis; type: functional, cell-based
AML12 [7] = assay: Antioxidant activity against free fatty acid induced oxidative stress in mouse AML12 cells assessed as increase in GSH level; type: functional, cell-based
AML12 [8] = assay: Antioxidant activity against free fatty acid induced oxidative stress in mouse AML12 cells assessed as increase in SOD level; type: functional, cell-based
AML12 [9] = assay: Antioxidant activity against free fatty acid induced oxidative stress in mouse AML12 cells assessed as decrease in ROS level incubated for 24 hrs; type: functional, cell-based
Mus musculus [10] = assay: Antioxidant activity against MCD diet-induced oxidative stress in C57Bl/6 mouse model of NAFLD assessed as downregulation of liver Keap1 protein expression level at 1 mg/kg,ip administrated for 4 weeks by immunoblot analysis; type: functional, organism-based
Mus musculus [11] = assay: Antioxidant activity against MCD diet-induced oxidative stress in C57Bl/6 mouse model of NAFLD assessed as upregulation of liver Nrf2 protein expression level at 1 mg/kg,ip administrated for 4 weeks by immunoblot analysis; type: functional, organism-based
Mus musculus [12] = assay: Antioxidant activity against MCD diet-induced oxidative stress in C57Bl/6 mouse model of NAFLD assessed as downregulation of liver Keap1 protein expression level at 1 mg/kg,ip administrated for 4 weeks by immunohistochemical staining assay; type: functional, organism-based
Mus musculus [13] = assay: Antioxidant activity against MCD diet-induced oxidative stress in C57Bl/6 mouse model of NAFLD assessed as downregulation of liver Keap1 protein expression level at 1 mg/kg,ip administrated for 4 weeks by immunofluorescence staining analysis; type: functional, organism-based
Mus musculus [14] = assay: Antioxidant activity against MCD diet-induced oxidative stress in C57Bl/6 mouse model of NAFLD assessed as upregulation of liver Nrf2 protein expression level at 1 mg/kg,ip administrated for 4 weeks by immunofluorescence staining analysis; type: functional, organism-based
Mus musculus [15] = assay: Antioxidant activity against MCD diet-induced oxidative stress in C57Bl/6 mouse model of NAFLD assessed as upregulation of liver HO-1 protein expression level at 1 mg/kg,ip administrated for 4 weeks by immunohistochemical staining assay; type: functional, organism-based
Mus musculus [16] = assay: Antioxidant activity against MCD diet-induced oxidative stress in C57Bl/6 mouse model of NAFLD assessed as upregulation of liver NQO1 protein expression level at 1 mg/kg,ip administrated for 4 weeks by immunohistochemical staining assay; type: functional, organism-based
Mus musculus [17] = assay: Antioxidant activity against MCD diet-induced oxidative stress in C57Bl/6 mouse model of NAFLD assessed as increase in CAT level in liver at 1 mg/kg,ip administrated for 4 weeks; type: functional, organism-based
Mus musculus [18] = assay: Antioxidant activity against MCD diet-induced oxidative stress in C57Bl/6 mouse model of NAFLD assessed as increase in SOD level in liver at 1 mg/kg,ip administrated for 4 weeks; type: functional, organism-based
Mus musculus [19] = assay: Antioxidant activity against MCD diet-induced oxidative stress in C57Bl/6 mouse model of NAFLD assessed as increase in GSH level in liver at 1 mg/kg,ip administrated for 4 weeks; type: functional, organism-based
Mus musculus [20] = assay: Antioxidant activity against MCD diet-induced oxidative stress in C57Bl/6 mouse model of NAFLD assessed as decrease in liver ROS level at 1 mg/kg,ip administrated for 4 weeks by immunostaining analysis; type: functional, organism-based
Mus musculus [21] = assay: Antioxidant activity against MCD diet-induced oxidative stress in C57Bl/6 mouse model of NAFLD assessed as reduction of serum TG level at 1 mg/kg,ip administrated for 4 weeks; type: functional, organism-based
Mus musculus [22] = assay: Antioxidant activity against MCD diet-induced oxidative stress in C57Bl/6 mouse model of NAFLD assessed as decrease in histopathological change in liver at 1 mg/kg,ip administrated for 4 weeks by hematoxylin and eosin staining based assay; type: functional, organism-based
[23] = Acute toxicity in zebrafish at < 2.5 uM observed at 120 hrs post fertilization; set-up: species or system Danio rerio; details: in vivo
[24] = Acute toxicity in zebrafish assessed as pericardial edema at 5 uM observed at 120 hrs post fertilization; set-up: species or system Danio rerio; details: in vivo
[25] = Acute toxicity in zebrafish assessed as death at 5 uM observed at 120 hrs post fertilization; set-up: species or system Danio rerio; details: in vivo
[26] = Acute toxicity in zebrafish assessed as death at 10 uM observed at 72 hrs post fertilization; set-up: species or system Danio rerio; details: in vivo
[27] = Acute toxicity in C57BL/6 mouse assessed as visceral damage at 20 mg/kg,ip qd administrated for 3 consecutive days and measured on day 4 by hematoxylin and eosin staining based assay; type: organism-based; details: in vivo
[28] = Acute toxicity in C57BL/6 mouse assessed as histopathological change in heart at 20 mg/kg,ip qd administrated for 3 consecutive days and measured on day 4 by hematoxylin and eosin staining based assay; type: organism-based; details: in vivo
[29] = Acute toxicity in C57BL/6 mouse assessed as histopathological change in liver at 20 mg/kg,ip qd administrated for 3 consecutive days and measured on day 4 by hematoxylin and eosin staining based assay; type: organism-based; details: in vivo
[30] = Acute toxicity in C57BL/6 mouse assessed as histopathological change in lung at 20 mg/kg,ip qd administrated for 3 consecutive days and measured on day 4 by hematoxylin and eosin staining based assay; type: organism-based; details: in vivo
[31] = Acute toxicity in C57BL/6 mouse assessed as histopathological change in spleen at 20 mg/kg,ip qd administrated for 3 consecutive days and measured on day 4 by hematoxylin and eosin staining based assay; type: organism-based; details: in vivo
[32] = Acute toxicity in C57BL/6 mouse assessed as visceral cellular damage at 20 mg/kg,ip qd administrated for 3 consecutive days and measured on day 4 by hematoxylin and eosin staining based assay; type: organism-based; details: in vivo
[33] = Acute toxicity in C57BL/6 mouse assessed as visceral inflammatory cell infiltration at 20 mg/kg,ip qd administrated for 3 consecutive days and measured on day 4 by hematoxylin and eosin staining based assay; type: organism-based; details: in vivo

Sequence of Protein cereblon/Kelch-like ECH-associated protein 1 (Mus musculus) (Q8C7D2 whole entry, looked up): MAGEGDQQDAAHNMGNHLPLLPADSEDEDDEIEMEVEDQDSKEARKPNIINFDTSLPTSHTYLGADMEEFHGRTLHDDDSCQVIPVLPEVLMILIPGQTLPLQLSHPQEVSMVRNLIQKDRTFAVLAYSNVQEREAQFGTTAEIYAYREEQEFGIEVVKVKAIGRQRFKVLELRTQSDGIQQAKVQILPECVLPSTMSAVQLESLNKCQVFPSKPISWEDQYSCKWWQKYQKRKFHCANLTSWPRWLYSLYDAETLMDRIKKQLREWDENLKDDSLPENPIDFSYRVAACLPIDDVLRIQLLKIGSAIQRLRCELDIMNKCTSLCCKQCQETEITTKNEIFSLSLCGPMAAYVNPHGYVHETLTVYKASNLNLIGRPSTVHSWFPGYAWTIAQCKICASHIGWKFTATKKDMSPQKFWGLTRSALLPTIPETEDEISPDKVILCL
Sequence of Protein cereblon/Kelch-like ECH-associated protein 1 (Mus musculus) (Q9Z2X8 whole entry, looked up): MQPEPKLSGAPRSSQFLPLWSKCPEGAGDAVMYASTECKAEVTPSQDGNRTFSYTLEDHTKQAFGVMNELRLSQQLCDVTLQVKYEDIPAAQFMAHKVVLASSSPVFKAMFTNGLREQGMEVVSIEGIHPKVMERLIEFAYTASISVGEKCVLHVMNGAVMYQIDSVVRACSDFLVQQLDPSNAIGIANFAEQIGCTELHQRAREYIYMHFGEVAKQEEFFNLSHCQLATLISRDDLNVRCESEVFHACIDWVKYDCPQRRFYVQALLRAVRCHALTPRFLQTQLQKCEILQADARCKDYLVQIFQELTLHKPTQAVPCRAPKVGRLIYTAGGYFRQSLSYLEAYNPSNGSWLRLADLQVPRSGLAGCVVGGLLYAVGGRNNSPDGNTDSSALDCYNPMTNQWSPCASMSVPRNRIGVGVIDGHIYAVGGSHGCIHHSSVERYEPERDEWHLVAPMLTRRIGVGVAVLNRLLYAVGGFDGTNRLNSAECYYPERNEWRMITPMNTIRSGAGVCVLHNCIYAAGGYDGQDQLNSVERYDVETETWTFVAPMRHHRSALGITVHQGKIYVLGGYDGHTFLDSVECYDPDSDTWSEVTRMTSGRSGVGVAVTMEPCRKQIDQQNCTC
Sequence of Kelch-like ECH-associated protein 1 (Q14145 whole entry): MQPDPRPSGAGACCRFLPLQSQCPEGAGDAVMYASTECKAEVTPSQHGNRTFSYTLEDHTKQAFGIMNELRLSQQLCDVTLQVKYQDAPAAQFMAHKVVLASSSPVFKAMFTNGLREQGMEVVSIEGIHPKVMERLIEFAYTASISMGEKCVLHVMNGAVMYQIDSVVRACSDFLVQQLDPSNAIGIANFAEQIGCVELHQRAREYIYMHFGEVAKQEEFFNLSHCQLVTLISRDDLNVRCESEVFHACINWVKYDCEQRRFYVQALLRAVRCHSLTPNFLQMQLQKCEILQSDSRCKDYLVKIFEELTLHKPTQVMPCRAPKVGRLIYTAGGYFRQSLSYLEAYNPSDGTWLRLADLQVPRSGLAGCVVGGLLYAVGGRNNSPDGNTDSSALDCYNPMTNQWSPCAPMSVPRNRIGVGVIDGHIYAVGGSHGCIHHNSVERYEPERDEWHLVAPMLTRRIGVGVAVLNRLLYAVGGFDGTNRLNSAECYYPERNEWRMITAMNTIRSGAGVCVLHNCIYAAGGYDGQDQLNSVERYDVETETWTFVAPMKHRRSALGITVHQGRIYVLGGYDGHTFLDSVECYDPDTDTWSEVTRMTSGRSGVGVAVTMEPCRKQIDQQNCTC

For Nc1cccc2c1C(=O)N(C1CCC(=O)NC1=O)C2=O (stereo not given), the Activity [1] was “inactive”.
With CN1C(=O)CCC(N2C(=O)c3cccc(NCCCCCNC(=O)[C@]45CCC(C)(C)C[C@H]4[C@H]4C(=O)C=C6C7(C)C=C(C#N)C(=O)C(C)(C)[C@@H]7CC[C@@]6(C)[C@]4(C)CC5)c3C2=O)C1=O (single isomer, unassigned) the Activity [1] was “inactive”.
With CC1(C)CC[C@]2(C(=O)O)CC[C@]3(C)[C@H](C(=O)C=C4[C@@]5(C)C=C(C#N)C(=O)C(C)(C)[C@@H]5CC[C@]43C)[C@@H]2C1 [BARDOXOLONE] the Activity [1] was “inactive”, the Kd [2] was 48.7 µM and the Activity (AML12 [3]) was “inactive”. For the same compound, the Activity (AML12 [4]) was “inactive”, the Activity (AML12 [5]) was “inactive” and the Activity (AML12 [6]) was “inactive”. For the same compound, the Activity (AML12 [7]) was “inactive”, the Activity (AML12 [8]) was “Active” and the Activity (AML12 [9]) was “Active”. For the same compound, the Activity (Mus musculus [10]) was “inactive”, the Activity (Mus musculus [11]) was “inactive” and the Activity (Mus musculus [12]) was “inactive”. For the same compound, the Activity (Mus musculus [13]) was “inactive”, the Activity (Mus musculus [14]) was “inactive” and the Activity (Mus musculus [15]) was “inactive”. For the same compound, the Activity (Mus musculus [16]) was “inactive”, the Activity (Mus musculus [17]) was “Active” and the Activity (Mus musculus [18]) was “Active”. For the same compound, the Activity (Mus musculus [19]) was “Active”, the Activity (Mus musculus [20]) was “Active” and the Activity (Mus musculus [21]) was “Active”. For the same compound, the Activity (Mus musculus [22]) was “Active”, the Activity [23] was “Non-Toxic” and the Activity [24] was “Toxic”. The Activity [25] was “Toxic”, the Activity [26] was “Toxic” and the Activity [27] was “Non-Toxic”. For the same compound, the Activity [28] was “Toxic”, the Activity [29] was “Toxic” and the Activity [30] was “Toxic”. The Activity [31] was “Toxic”, the Activity [32] was “Toxic” and the Activity [33] was “Toxic”.

— ChEMBL document CHEMBL5331129, “Discovery of NAFLD-Improving Agents by Promoting the Degradation of Keap1” (J Med Chem, 2023)
